Activity calls are given as the source filed them. The rule behind the calls is not given here.
Legend:
[1] = target: cGMP-dependent protein kinase (Eimeria tenella, UniProt Q8MMZ8); assay: Inhibition of Eimeria tenella cGMP-dependent protein kinase
Eimeria tenella [2] = assay: Anticoccidial activity against Eimeria tenella in chick assessed as reduction in oocyst at 100 ppm, po after 6 days; format: functional
Eimeria acervulina [3] = assay: Anticoccidial activity against Eimeria acervulina in chick assessed as reduction in oocyst at 100 ppm, po after 5 days; format: functional
Eimeria acervulina [4] = assay: Anticoccidial activity against Eimeria acervulina in chick assessed as reduction in oocyst at 50 ppm, po after 5 days; format: functional, organism-based
Eimeria tenella [5] = assay: Anticoccidial activity against Eimeria tenella in chick assessed as reduction in oocyst at 50 ppm, po after 6 days; format: functional, organism-based

Chain of cGMP-dependent protein kinase (Q8MMZ8 whole entry): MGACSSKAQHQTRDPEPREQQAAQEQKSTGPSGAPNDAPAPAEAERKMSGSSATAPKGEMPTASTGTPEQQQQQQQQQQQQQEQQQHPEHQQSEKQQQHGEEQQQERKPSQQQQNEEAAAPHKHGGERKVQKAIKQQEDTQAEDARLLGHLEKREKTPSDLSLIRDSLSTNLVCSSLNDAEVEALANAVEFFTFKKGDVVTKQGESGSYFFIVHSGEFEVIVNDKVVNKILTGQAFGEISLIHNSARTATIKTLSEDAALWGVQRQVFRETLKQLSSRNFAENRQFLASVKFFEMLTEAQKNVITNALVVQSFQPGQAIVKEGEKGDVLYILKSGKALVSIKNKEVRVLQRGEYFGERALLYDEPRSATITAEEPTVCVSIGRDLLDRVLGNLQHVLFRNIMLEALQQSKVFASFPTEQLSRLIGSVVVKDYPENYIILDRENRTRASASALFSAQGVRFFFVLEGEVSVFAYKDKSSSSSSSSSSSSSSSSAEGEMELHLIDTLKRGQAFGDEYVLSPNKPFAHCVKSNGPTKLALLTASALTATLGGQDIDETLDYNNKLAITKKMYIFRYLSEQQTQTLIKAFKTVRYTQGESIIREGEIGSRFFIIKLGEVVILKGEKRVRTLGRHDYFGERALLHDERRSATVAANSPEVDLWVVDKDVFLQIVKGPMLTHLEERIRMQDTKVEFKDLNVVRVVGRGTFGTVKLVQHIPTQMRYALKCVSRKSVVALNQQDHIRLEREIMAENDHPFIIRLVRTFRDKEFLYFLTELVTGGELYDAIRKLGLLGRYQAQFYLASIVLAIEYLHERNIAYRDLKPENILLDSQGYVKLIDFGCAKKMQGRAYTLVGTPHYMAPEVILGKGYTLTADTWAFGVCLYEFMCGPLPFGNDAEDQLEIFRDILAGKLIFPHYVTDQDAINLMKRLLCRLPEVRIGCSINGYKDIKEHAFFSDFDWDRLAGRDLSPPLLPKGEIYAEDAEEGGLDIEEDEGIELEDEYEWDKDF

CS(=O)(=O)N1CCN(S(C)(=O)=O)C(CN2CCC(c3cc(-c4ccncc4)c(-c4ccc(F)cc4)[nH]3)CC2)C1 (stereo unspecified)
IC50 [1]: 1.41 nM
Activity (Eimeria tenella [2]): inactive
Activity (Eimeria acervulina [3]): inactive

CN1CC[C@H]1CN1CCC(c2cc(-c3ccncc3)c(-c3ccc(F)cc3)[nH]2)CC1
IC50 [1]: 0.28 nM
Activity (Eimeria tenella [2]): 80%
Activity (Eimeria acervulina [3]): 80%

CN1CCOC(CN2CCC(c3cc(-c4ccncc4)c(-c4ccc(F)cc4)[nH]3)CC2)C1 (stereo unspecified)
IC50 [1]: 0.67 nM
Activity (Eimeria acervulina [4]): Active
Activity (Eimeria tenella [2]): 80%
Activity (Eimeria tenella [5]): Active
Activity (Eimeria acervulina [3]): 80%

CN1C[C@H](O)C[C@H]1CN1CCC(c2cc(-c3ccncc3)c(-c3ccc(F)cc3)[nH]2)CC1
IC50 [1]: 0.34 nM
Activity (Eimeria tenella [2]): 80%
Activity (Eimeria acervulina [3]): 50%

CC(CN1CCC1)N1CCC(c2cc(-c3ccncc3)c(-c3ccc(F)cc3)[nH]2)CC1 (stereo unspecified)
IC50 [1]: 0.4 nM
Activity (Eimeria tenella [2]): 80%
Activity (Eimeria acervulina [3]): 80%

OC[C@@H]1CCN1CCN1CCC(c2cc(-c3ccncc3)c(-c3ccc(F)cc3)[nH]2)CC1
IC50 [1]: 1.7 nM
Activity (Eimeria tenella [2]): 80%
Activity (Eimeria acervulina [3]): 80%

COC(=O)N1CCOC(C(=O)N2CCC(c3cc(-c4ccncc4)c(-c4ccc(F)cc4)[nH]3)CC2)C1 (stereo unspecified)
IC50 [1]: 4.7 nM
Activity (Eimeria tenella [2]): 50%
Activity (Eimeria acervulina [3]): 50%

O[C@H]1CN[C@H](CN2CCC(c3cc(-c4ccncc4)c(-c4ccc(F)cc4)[nH]3)CC2)C1
IC50 [1]: 0.16 nM
Activity (Eimeria tenella [2]): 80%
Activity (Eimeria acervulina [3]): 50%

Fc1ccc(-c2[nH]c(C3CCN(CCN4CCC4)CC3)cc2-c2ccncc2)cc1
IC50 [1]: 0.08 nM
Activity (Eimeria tenella [2]): 80%
Activity (Eimeria acervulina [3]): 80%

O=C(C1CNCCO1)N1CCC(c2cc(-c3ccncc3)c(-c3ccc(F)cc3)[nH]2)CC1 (stereo unspecified)
IC50 [1]: 0.27 nM
Activity (Eimeria tenella [2]): 80%
Activity (Eimeria acervulina [3]): 50%

CC(=O)N1CCN(C(C)=O)C(CN2CCC(c3cc(-c4ccncc4)c(-c4ccc(F)cc4)[nH]3)CC2)C1 (stereo unspecified)
IC50 [1]: 2.2 nM
Activity (Eimeria tenella [2]): inactive
Activity (Eimeria acervulina [3]): inactive

COC(=O)N1CCOC(CN2CCC(c3cc(-c4ccncc4)c(-c4ccc(F)cc4)[nH]3)CC2)C1 (stereo unspecified)
IC50 [1]: 1.03 nM
Activity (Eimeria tenella [2]): 80%
Activity (Eimeria acervulina [3]): 50%

CCN1C[C@H](O)C[C@H]1CN1CCC(c2cc(-c3ccncc3)c(-c3ccc(F)cc3)[nH]2)CC1
IC50 [1]: 0.36 nM
Activity (Eimeria tenella [2]): 80%
Activity (Eimeria acervulina [3]): 50%

CN1CCN(C)C(CN2CCC(c3cc(-c4ccncc4)c(-c4ccc(F)cc4)[nH]3)CC2)C1 (stereo unspecified)
IC50 [1]: 1.08 nM
Activity (Eimeria tenella [2]): 50%
Activity (Eimeria acervulina [3]): 50%

O=C(CN1CCC(c2cc(-c3ccncc3)c(-c3ccc(F)cc3)[nH]2)CC1)N1CCC1
IC50 [1]: 1.01 nM
Activity (Eimeria tenella [2]): 80%
Activity (Eimeria acervulina [3]): 80%

Fc1ccc(-c2[nH]c(C3CCN(CC4CNCCO4)CC3)cc2-c2ccncc2)cc1 (stereo unspecified)
IC50 [1]: 0.17 nM
Activity (Eimeria tenella [2]): 80%
Activity (Eimeria acervulina [3]): 50%

Fc1ccc(-c2[nH]c(C3CCN(CC4CNCCN4)CC3)cc2-c2ccncc2)cc1 (stereo unspecified)
IC50 [1]: 0.07 nM
Activity (Eimeria tenella [2]): 80%
Activity (Eimeria acervulina [3]): 50%

CC(=O)N1C[C@H](O)C[C@H]1CN1CCC(c2cc(-c3ccncc3)c(-c3ccc(F)cc3)[nH]2)CC1
IC50 [1]: 2.2 nM
Activity (Eimeria tenella [2]): 80%
Activity (Eimeria acervulina [3]): 50%

— ChEMBL document CHEMBL1143249, “N-alkyl-4-piperidinyl-2,3-diarylpyrrole derivatives with heterocyclic substitutions as potent and broad spectrum anticoccidial agents” (Bioorg Med Chem Lett, 2008)
